Reference: US20060226082A1, “Methods for substrate and modulator screening using enzyme-reactor chromatography/tandem mass spectrometry” (McMaster University, priority 2005, published 2006)
“Also recorded” adds a separate entry of the source.

Assays:
[1] = target: T1, adenosine deaminase (ADA, Type V, EC 3.5.4.4) entrapped in monolithic silica column (Bos taurus, UniProt P56658); assay: ADA enzyme reactor/MS mixture screening (primary and secondary screen); assay type: biochemical, bovine; settings: each compound individually, 500 nM and 10 μM, 200 μM adenosine
T1 construct: Adenosine deaminase (ADA, Type V, from bovine intestine, EC 3.5.4.4); purchased Sigma-Aldrich (Oakville, Ontario, Canada) Type V (catalogue number not given); host or cells: bovine intestine (tissue-derived)
T1 sequence (P56658 1-363): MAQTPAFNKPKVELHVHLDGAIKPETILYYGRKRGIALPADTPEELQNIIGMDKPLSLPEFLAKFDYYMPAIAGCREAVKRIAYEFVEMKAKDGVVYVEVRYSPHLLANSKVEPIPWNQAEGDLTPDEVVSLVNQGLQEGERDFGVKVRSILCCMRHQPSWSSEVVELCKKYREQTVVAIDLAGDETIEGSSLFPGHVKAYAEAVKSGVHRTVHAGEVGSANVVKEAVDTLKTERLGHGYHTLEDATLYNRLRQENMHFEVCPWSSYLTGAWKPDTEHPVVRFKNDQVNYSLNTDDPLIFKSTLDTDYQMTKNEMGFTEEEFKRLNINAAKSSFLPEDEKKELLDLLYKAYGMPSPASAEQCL
Procedure: Columns were fabricated in a fashion similar to that described previously.^25 ADA was exhaustively dialyzed against a solution containing 5 mM Bis-Tris.HCl, pH 6.5, with 10% (v/v) glycerol to remove all traces of phosphate buffer and adjust the pH. 40 mL of the resultant 40 mM ADA solution was then mixed with 20 mL of a solution containing 0.5 mM Bis-Tris.HCl, pH 6.5 with 50% (v/v) glycerol. DGS based sols were prepared by sonicating DGS with water (1 g+1 mL) at 0° C. for 15 min to hydrolyze the monomer, followed by filtration through a 0.2 mm filter. 100 mL of the resulting sol was rapidly mixed with the 60 mL ADA solution prepared above, followed by the rapid addition of 40 mL of 40% (w/v) poly(ethylene glycol) in water. The sol solution was then injected into an 80 cm length of 250 mm i.d., 360 mm o.d., polyimide coated fused silica tubing that was previously cleaned using 1 M NaOH. The liquid sol must be completely mixed, injected and stationary within the capillary by the time phase separation occurs, ˜2 minutes after mixing. After gelation (˜3 min), capillaries were looped such that both ends could be submerged in 50 mM Bis-Tris.HCl pH 6.5 and secured for storage. Columns were aged for a minimum of 5 days to achieve a relatively stable internal structure. After aging, 10 cm column segments were cut from poured columns, as required. […]

[2] = target: T1, adenosine deaminase (ADA, Type V, EC 3.5.4.4) entrapped in monolithic silica column; assay: ADA enzyme reactor/MS quantitative determination of IC50, KI and Km; assay type: biochemical, bovine; settings: for IC50: IC50 [EHNA]; for effect on ADA activity (substrate and product signals, P/S ratio): test compounds increased stepwise from 0 to 1000 nM, adenosine constant at 62.5 μM, 2 mM ammonium acetate
Source text: In an embodiment of the invention, if the P/S ratio is altered in favour of the substrate, then at least one of the one or more test compounds is an inhibitor of the protein. By altering the ratio of the flow between substrate and test compound channels, one can alter the compound concentrations and, thereby, obtain full inhibition curves. IC50 values are obtained by altering the flow in the substrate and substrate+inhibitor(s) channel in a stepwise fashion, thus allowing for variation of inhibitor concentration with constant substrate concentration. […] KI values are determined by extrapolation of IC50 values obtained at different substrate concentrations to the point of zero substrate concentration as per the equation: [formula] […] Note that for the enzyme reactor column, product concentration, rather than reaction rate, is monitored. Thus, the equation is valid only under conditions where the initial rate is proportional to product concentration. In the present system, it is assumed that this holds for conversion rates of 30% or less.
To assess the enzyme-reactor chromatography/tandem MS method for inhibitor screening, monolithic silica columns containing entrapped adenosine deaminase (ADA, EC 3.5.4.4) and Factor Xa were formed according to previously described methods.^25 ADA was used as the model enzyme owing to the relevance of this protein in immune disorders,^19 and because there are currently no high-throughput screening methods for this enzyme. An Eksigent nanoLC system was used to continuously infuse liquid through the column (10 μL/min total flowrate), with one channel containing adenosine (Pump A) and another containing adenosine plus 1 μM test compound(s) (Pump B), with all species present in 2 mM ammonium acetate buffer (FIG. 1, bottom).
Columns were fabricated in a fashion similar to that described previously.^25 ADA was exhaustively dialyzed against a solution containing 5 mM Bis-Tris.HCl, pH 6.5, with 10% (v/v) glycerol to remove all traces of phosphate buffer and adjust the pH. 40 mL of the resultant 40 mM ADA solution was then mixed with 20 mL of a solution containing 0.5 mM Bis-Tris.HCl, pH 6.5 with 50% (v/v) glycerol. DGS based sols were prepared by sonicating DGS with water (1 g+1 mL) at 0° C. for 15 min to hydrolyze the monomer, followed by filtration through a 0.2 mm filter. 100 mL of the resulting sol was rapidly mixed with the 60 mL ADA solution prepared above, followed by the rapid addition of 40 mL of 40% (w/v) poly(ethylene glycol) in water. The sol solution was then injected into an 80 cm length of 250 mm i.d., 360 mm o.d., polyimide coated fused silica tubing that was previously cleaned using 1 M NaOH. The liquid sol must be completely mixed, injected and stationary within the capillary by the time phase separation occurs, ˜2 minutes after mixing. After gelation (˜3 min), capillaries were looped such that both ends could be submerged in 50 mM Bis-Tris.HCl pH 6.5 and secured for storage. Columns were aged for a minimum of 5 days to achieve a relatively stable internal structure. After aging, 10 cm column segments were cut from poured columns, as required.
A 2 channel, Eksigent nanoLC pump was used for mobile phase delivery to a MDS Sciex Q-Trap Mass Spectrometer. Note that the Eksigent pump uses direct pneumatic pumping of mobile phase at μL/min rates, with no flow splitting. An Eksigent AS-1 48 vial autosampler was fitted with a 250 μL withdrawal syringe and a 150 μL loop of 250 μm i.d. fused silica tubing. Thus, only small volumes of inhibitor solutions (˜400 μL) are required for screening, although larger volumes can be loaded directly into the Eksigent pump reservoir (1-5 mL depending on configuration) for determination of IC50 values. […] Mobile phases were run directly into the MS system, without the introduction of an organic “make-up flow”. Mass spectrometer control and data acquisition was done using Analyst v.1.4 software.

[3] = target: T2, adenosine deaminase (ADA) (Homo sapiens, UniProt P00813); settings: literature value; read-out: published KI value; cited from earlier work
T2 sequence (P00813 1-363): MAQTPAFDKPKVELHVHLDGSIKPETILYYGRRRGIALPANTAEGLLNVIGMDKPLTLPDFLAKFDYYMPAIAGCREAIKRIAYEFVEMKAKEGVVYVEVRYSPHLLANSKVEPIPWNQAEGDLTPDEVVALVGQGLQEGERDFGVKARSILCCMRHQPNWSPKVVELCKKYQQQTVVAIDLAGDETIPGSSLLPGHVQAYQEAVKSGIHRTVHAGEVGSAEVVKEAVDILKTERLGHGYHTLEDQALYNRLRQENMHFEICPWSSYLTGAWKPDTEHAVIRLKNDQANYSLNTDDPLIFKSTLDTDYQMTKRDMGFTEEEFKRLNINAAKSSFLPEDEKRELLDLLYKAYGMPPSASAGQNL

Ki [2] [nM] | IC50 ([2]; EHNA alone (closed circles, FIG. 8A)) [nM] | IC50 ([2]; EHNA in a mixture (open circles, FIG. 8A)) [nM] | Vmax ([2]; Michaelis-Menten analysis of inosine production rate (FIG. 6b)) [pmole/min/column] | SMILES | ADA inhibition in secondary screen (individual compounds of active mixture) [1] | effect on ADA activity (substrate and product signals, P/S ratio) [2] | Ki [3] [nM]
15.7 ± 3.5 | 29.4 | 29.7 |  | CCCCCCC(C(C)O)n1cnc2c(N)ncnc21 (stereo not drawn) [EHNA, erythro-9-(2-hydroxy-3-nonyl)adenine] | active, inhibitory compound; also recorded: inhibitor of ADA | concentration-dependent decrease in product and increase in substrate signals; also recorded: concentration-dependent decrease in ADA activity | 6.5
 |  |  | 734 | Nc1ncnc2c1ncn2[C@@H]1O[C@H](CO)[C@@H](O)[C@H]1O [adenosine] |  |  | 
 |  |  |  | Nc1nc2ncc(CNc3ccc(C(=O)N[C@@H](CCC(=O)O)C(=O)O)cc3)nc2c(=O)[nH]1 [folic acid] |  | no significant effect | 
